These are literature values, as cited in patent US20230172916A1, “COMPOSITION COMPRISING AT LEAST ONE PROTOBERBERINE ALKALOID AND METHOD FOR MANUFACTURING SAME” (ELEONOR, priority 2020, published 2023).

Where two headings read alike, the source gives them in different places.

The conditions of data set [1]: scientific studies report; species not stated.
For data set [2] the following is noted: laboratory rats subjected to experiments.

Take `COc1ccc2cc3[n+](cc2c1OC)CCc1cc2c(cc1-3)OCO2` [berberine, 2,3-methylenedioxy-9,10-dimethoxy-protoberberine]: the bioavailability result is on record as “less than 5%” in data set [1] and “about 0.68%” in data set [2].
